Earlier results as cited in PMC11843658 (Journal of Enzyme Inhibition and Medicinal Chemistry, 2025).

System: Kasumi-1 xenograft
Design: method as in PMID 32551003
Conditions: Kasumi-1 xenograft model of acute myeloid leukaemia; cited from earlier work

CC/C(=C\c1ccccc1)[C@@H]1C[C@H]1NC1CC2(C1)CN(CCO)C2 [Compound 5]
anticancer effects in xenograft model: potent anticancer effects
